Source: patent publication US8222430B2, “1-heterodiene derivative and harmful organism control agent” (priority 2008, dated 2012)
Read-outs that look alike come from different tables or passages of the source.

How the values were obtained:
[1] = system: Pseudaletia separate; assay: Confirmation of efficacy against Pseudaletia separate (maize leaf soak, insect mortality); type: in vivo; conditions: 120 h, maize leaves soaked 30 seconds, second-instar larvae, after five days, 25° C., humidity 65%, read-out: mortality rate
Excerpt: Maize leaves were soaked in the resulting chemical solution for 30 seconds and air-dried. Then the leaves were put on Petri dishes lined with a filter paper, followed by inoculating 5 second-instar larvae. […] Mortality was investigated after five days, and the insect mortality rate was obtained. The test was repeated twice.

[2] = system: Bemisia tabaci; assay: Confirmation of efficacy against Bemisia tabaci (sprayed detached tomato leaves, insect mortality); type: in vivo; conditions: 72 h, B type adults, after three days, 25° C., humidity 65%, read-out: mortality rate
Excerpt: Detached tomato leaves were sprayed with the resulting chemical solution and air-dried. Then, the leaves were set on flasks in a manner that the surface of the leaves face upward. […] The test was repeated twice.

[3] = system: Aphis gossypii; assay: Confirmation of efficacy against Aphis gossypii (cucumber seedlings, insect mortality); type: in vivo; conditions: 120 h, read-out: mortality rate
Excerpt: Mortality was investigated after five days, and the insect mortality rate was obtained.
The test was repeated twice.

[4] = system: Tetranychus urticae with organophosphate resistance; assay: Confirmation of efficacy against Tetranychus urticae (bean seedlings, mortality); conditions: for mortality rate: 125 ppm, sprayed bean seedlings, female adults with organophosphate resistance, after three days, 25° C., humidity 65%
[5] = 125 ppm, cucumber seedlings parasitized with offspring, after five days, 25° C., humidity 65%

Structure (SMILES)	mortality at 125 ppm [1] [%]	mortality at 125 ppm [2] [%]	mortality rate [4] [%]	other results
C(/Sc1ccccc1)=C1/CCS/C1=N\c1ccccc1 [Compound 1a-1, (Z)—N-((E)-3-(phenylthiomethylene)dihydrothiophen-2(3H)-ylidene)aniline]	100	100		
C(/Sc1ccccc1)=C1/CCCS/C1=N\c1ccccc1 [Compound 2a-1, (Z)—N-((E)-3-(phenylthiomethylene)tetrahydro-2H-thiopyran-2-ylidene) aniline]	100	100		mortality at 125 ppm [3, 5]: 100%
Cc1ccc(/N=C2\SCCC\C2=C/Sc2ccc(F)cc2)cc1 [Compound 2a-78]			100	
Cc1ccc(/N=C2\OC(C)CC\C2=C/Sc2ccccc2)cc1 (centres unmarked) [Compound 2a-83]			100	
CCCC1CCC(=C\Sc2ccccc2)/C(=N/c2ccc(C)cc2)O1 (centres unmarked) [Compound 2a-84]			100	
Cc1ccc(/N=C2\OC(C)(C)CC\C2=C/Sc2ccccc2)cc1 [Compound 2a-85]			100	
Cc1ccc(/N=C2\OC(c3ccccc3)CC\C2=C/Sc2ccccc2)cc1 (centres unmarked) [Compound 2a-86]			100	
Cc1ccc(/N=C2\OC3CCCCC3C\C2=C/Sc2ccccc2)cc1 (centres unmarked) [Compound 5a-1]	100	100		mortality at 125 ppm [3, 5]: 100%
Cc1ccc(/N=C2\OCc3ccccc3\C2=C/Sc2ccccc2)cc1 [Compound 5a-2]	100			
Cc1ccc(/N=C2\OC3CCCCC3\C2=C/Sc2ccccc2)cc1 (centres unmarked) [Compound 5a-3]	100	100		
Clc1ccc(/N=C2\SC3C=CCCC3C\C2=C/Sc2ccccc2)cc1 (centres unmarked) [Compound 5a-5, (4-chloro-phenyl)-{3-[1-phenylsulfanyl-(E)-methylidene]-3,4,4a,5,6,8a-hexahydro-thiochromene-(2Z)-ylidene}-amine]	100	100		mortality at 125 ppm [3]: 100%; mortality at 125 ppm ([4]; Tetranychus urticae, 72 h, read-out: mortality rate): 100%
